Patent publication US8129369B2, “Antifungal compounds containing benzothiazinone, benzoxazinone or benzoxazolinone and process thereof” (Council of Scientific & Industrial Research;, priority 2008, dated 2012)
≈ marks a conversion by molar mass, not a printed value.

How the values were obtained:
C. albicans ATCC 24433 = experiment: MIC by broth macro-dilution method, C. albicans ATCC 24433; assay type: cell-based, Candida albicans; conditions: 48 hours; for MIC: Candida albicans, ATCC24433, RPMI 1640 with MOPS, MIC = concentration exhibiting 80% inhibition vs positive growth control
Description: (§1) The compounds of Formula 1 were tested for antifungal activity against various fungi including Candida albicans, Aspergillus niger and Fusarium proliferatum. In vitro evaluation of antifungal activity was performed by determining the minimum inhibitory concentration (MIC) following standard methods (CLSI: Reference method for broth dilution antifungal susceptibility testing of yeasts; Approved standard, second edition M27-A2, 2002; CLSI: Reference method for broth dilution antifungal susceptibility testing of filamentous fungi; Approved standard M38-A, 2002). Anti-fungal susceptibility testing of these anti-fungal compounds was done by broth dilution method using RPMI 1640 medium with MOPS buffer. Known anti-fungal agents like Fluconazole and Amphotericin-B were used as standards. End points were determined after 48 hours visually and by using spectrophotometer wherever necessary.
(§2) >16 μg/ml: The novel compounds of formula 1 are generally tested for concentration range from 0.03 μg/ml to the concentration till it was in solution (For e.g.: Back precipitation 128-32 μg/ml, Concentration for assay: 0.03 to 16 μg/ml).

A. niger ATCC 16404 = experiment: MIC by broth macro-dilution method, A. niger ATCC 16404; assay type: cell-based, Aspergillus niger; conditions: 48 hours; for MIC: Aspergillus niger, ATCC16404, RPMI 1640 with MOPS, MIC = concentration exhibiting 80% inhibition vs positive growth control
Description: as §1, §2

[1] = system: F. proliferatum ATCC 10052; experiment: MIC by broth macro-dilution method, F. proliferatum ATCC 10052; assay type: cell-based, Fusarium proliferatum; conditions: 48 hours; for MIC: Fusarium proliferatum, ATCC10052, RPMI 1640 with MOPS, MIC = concentration exhibiting 80% inhibition vs positive growth control
Description: as §1, §2

C. albicans ATCC24433 = experiment: MIC by broth micro-dilution method, C. albicans ATCC24433; assay type: cell-based, Candida albicans; conditions: for MIC: Candida albicans, ATCC24433, MIC = concentration exhibiting 50% inhibition vs positive control
Description: as §1

C. albicans ATCC10231 = experiment: MIC by broth micro-dilution method, C. albicans ATCC10231; assay type: cell-based, Candida albicans; conditions: for MIC: Candida albicans, ATCC10231, MIC = concentration exhibiting 50% inhibition vs positive control
Description: as §1

C. albicans ATCC2091 = experiment: MIC by broth micro-dilution method, C. albicans ATCC2091; assay type: cell-based, Candida albicans; conditions: for MIC: Candida albicans, ATCC2091, MIC = concentration exhibiting 50% inhibition vs positive control
Description: as §1

C. albicans ATCC90028 = experiment: MIC by broth micro-dilution method, C. albicans ATCC90028; assay type: cell-based, Candida albicans; conditions: for MIC: Candida albicans, ATCC90028, MIC = concentration exhibiting 50% inhibition vs positive control
Description: as §1

C. glabrata ATCC90030 = experiment: MIC by broth micro-dilution method, C. glabrata ATCC90030; assay type: cell-based; conditions: for MIC: Nakaseomyces glabratus, ATCC90030, MIC = concentration exhibiting 50% inhibition vs positive control
Description: as §1

C. krusei ATCC6258 = experiment: MIC by broth micro-dilution method, C. krusei ATCC6258; assay type: cell-based; conditions: for MIC: Pichia kudriavzevii, ATCC6258, MIC = concentration exhibiting 50% inhibition vs positive control
Description: as §1

C. tropicalis ATCC750 = experiment: MIC by broth micro-dilution method, C. tropicalis ATCC750; assay type: cell-based; conditions: for MIC: Candida tropicalis, ATCC750, MIC = concentration exhibiting 50% inhibition vs positive control
Description: as §1

[2] = RPMI 1640 with MOPS, MIC = concentration exhibiting complete inhibition (Amphotericin B)
[3] = MIC = concentration exhibiting complete inhibition (Amphotericin B)

Compound	MIC (C. albicans ATCC 24433) [µg/mL]	MIC (A. niger ATCC 16404) [µg/mL]	MIC [1] [µg/mL]	also measured
C[C@@H]1[C@H](O)[C@@H](C)/C=C/C=C/C=C/C=C/C=C/C=C/C=C/[C@H](O[C@@H]2O[C@H](C)[C@@H](O)[C@H](N)[C@@H]2O)C[C@@H]2O[C@](O)(C[C@@H](O)C[C@@H](O)[C@H](O)CC[C@@H](O)C[C@@H](O)CC(=O)O[C@H]1C)C[C@H](O)[C@H]2C(=O)O [Amphotericin B, reference compound]	–	–	–	MIC C. albicans ATCC24433 (C. albicans ATCC 24433; [2]): 0.25 µg/mL (≈ 0.271 µM); MIC A. niger ATCC 16404 (A. niger ATCC 16404; [2]): 1 µg/mL (≈ 1.08 µM); MIC F. proliferatum ATCC 10052 [1, 2]: 2 µg/mL (≈ 2.16 µM); MIC C. albicans ATCC24433 (C. albicans ATCC24433; [3]): 0.25 µg/mL (≈ 0.271 µM); MIC C. albicans ATCC10231 (C. albicans ATCC10231; [3]): 0.5 µg/mL (≈ 0.541 µM); MIC C. albicans ATCC2091 (C. albicans ATCC2091; [3]): 0.5 µg/mL (≈ 0.541 µM); MIC C. albicans ATCC90028 (C. albicans ATCC90028; [3]): 0.5 µg/mL (≈ 0.541 µM); MIC C. glabrata ATCC90030 (C. glabrata ATCC90030; [3]): 0.25 µg/mL (≈ 0.271 µM); MIC C. krusei ATCC6258 (C. krusei ATCC6258; [3]): 0.5 µg/mL (≈ 0.541 µM); MIC C. tropicalis ATCC750 (C. tropicalis ATCC750; [3]): 0.5 µg/mL (≈ 0.541 µM)
O=C1CSc2ccccc2N1CC(O)(Cn1cncn1)c1ccc(F)cc1F (stereo not shown) [Compound 1a, 4-[2-(2,4-Difluorophenyl)-2-hydroxy-3-[1,2,4]triazol-1-yl-propyl]-4H-benzo[1,4]thiazin-3-one]	0.25 (≈ 0.621 µM)	> 64	> 64	MIC (C. albicans ATCC24433): 0.03 µg/mL (≈ 0.0745 µM); MIC (C. albicans ATCC10231): 0.12 µg/mL (≈ 0.298 µM); MIC (C. albicans ATCC2091): 2 µg/mL (≈ 4.97 µM); MIC (C. albicans ATCC90028): 0.03 µg/mL (≈ 0.0745 µM); MIC (C. glabrata ATCC90030): 0.06 µg/mL (≈ 0.149 µM); MIC (C. krusei ATCC6258): 4 µg/mL (≈ 9.94 µM); MIC (C. tropicalis ATCC750): 0.5 µg/mL (≈ 1.24 µM)
O=C1CSc2cc(Cl)ccc2N1CC(O)(Cn1cncn1)c1ccc(F)cc1F (stereo not shown) [Compound 1b, 7-Chloro-4-[2-(2,4-difluorophenyl)-2-hydroxy-3-[1,2,4]-triazol-1-yl-propyl]-4H-benzo[1,4]thiazin-3-one]	1 (≈ 2.29 µM)	> 16	> 16	–
O=C1CSc2cc(Br)ccc2N1CC(O)(Cn1cncn1)c1ccc(F)cc1F (stereo not shown) [Compound 1c, 7-Bromo-4-[2-(2,4-difluorophenyl)-2-hydroxy-3-[1,2,4]triazol-1-yl-propyl]-4H-benzo[1,4]thiazin-3-one]	1 (≈ 2.08 µM)	> 16	> 16	–
COc1ccc2c(c1)SCC(=O)N2CC(O)(Cn1cncn1)c1ccc(F)cc1F (stereo not shown) [Compound 1d, 4-[2-(2,4-Difluorophenyl)-2-hydroxy-3-[1,2,4]triazol-1-yl-propyl]-7-methoxy-4H-benzo[1,4]thiazin-3-one]	4 (≈ 9.25 µM)	> 32	> 32	–
Cc1ccc2c(c1)SCC(=O)N2CC(O)(Cn1cncn1)c1ccc(F)cc1F (stereo not shown) [Compound 1e, 4-[2-(2,4-Difluorophenyl)-2-hydroxy-3-[1,2,4]triazol-1-yl-propyl]-7-methyl-4H-benzo[1,4]thiazin-3-one]	2 (≈ 4.8 µM)	> 32	> 32	–
O=C1CSc2cc(Cl)ccc2N1CC(O)(Cn1cncn1)c1ccc(F)cc1 (stereo not shown) [Compound 1f, 7-Chloro-4-[2-(4-fluorophenyl)-2-hydroxy-3-[1,2,4]-triazol-1-yl-propyl]-4H-benzo[1,4]thiazin-3-one]	2 (≈ 4.77 µM)	> 16	> 16	–
COc1ccc2c(c1)SCC(=O)N2CC(O)(Cn1cncn1)c1ccc(Br)cc1 (stereo not shown) [Compound 1g, 4-[2-(4-Bromophenyl)-2-hydroxy-3-[1,2,4]triazol-1-yl-propyl]-7-methoxy-4H-benzo[1,4]thiazin-3-one]	2 (≈ 4.21 µM)	> 16	> 16	–
COc1ccc2c(c1)SCC(=O)N2CC(O)(Cn1cncn1)c1ccc(F)cc1 (stereo not shown) [Compound 1h, 4-[2-(4-Fluorophenyl)-2-hydroxy-3-[1,2,4]triazol-1-yl-propyl]-7-methoxy-4H-benzo[1,4]thiazin-3-one]	8 (≈ 19.3 µM)	> 16	> 16	–
O=C1COc2ccccc2N1CC(O)(Cn1cncn1)c1ccc(F)cc1F (stereo not shown) [Compound 1i, 4-[2-(2,4-Difluorophenyl)-2-hydroxy-3-[1,2,4]-triazol-1-yl-propyl]-4H-benzo[1,4]oxazin-3-one]	0.5 (≈ 1.29 µM)	> 64	> 64	MIC (C. albicans ATCC24433): 0.12 µg/mL (≈ 0.311 µM); MIC (C. albicans ATCC10231): 0.5 µg/mL (≈ 1.29 µM); MIC (C. albicans ATCC2091): 4 µg/mL (≈ 10.4 µM); MIC (C. albicans ATCC90028): 0.12 µg/mL (≈ 0.311 µM); MIC (C. glabrata ATCC90030): 0.25 µg/mL (≈ 0.647 µM); MIC (C. krusei ATCC6258): 16 µg/mL (≈ 41.4 µM); MIC (C. tropicalis ATCC750): 2 µg/mL (≈ 5.18 µM)
O=C1COc2ccc(Cl)cc2N1CC(O)(Cn1cncn1)c1ccc(F)cc1F (stereo not shown) [Compound 1j, 6-Chloro-4-[2-(2,4-difluorophenyl)-2-hydroxy-3-[1,2,4]triazol-1-yl-propyl]-4H-benzo[1,4]oxazin-3-one]	8 (≈ 19 µM)	> 32	> 32	–
O=C1COc2ccc(Br)cc2N1CC(O)(Cn1cncn1)c1ccc(F)cc1F (stereo not shown) [Compound 1k, 6-Bromo-4-[2-(2,4-difluorophenyl)-2-hydroxy-3-[1,2,4]triazol-1-yl-propyl]-4H-benzo[1,4]oxazin-3-one]	16 (≈ 34.4 µM)	> 32	> 32	–
O=C1COc2ccc([N+](=O)[O-])cc2N1CC(O)(Cn1cncn1)c1ccc(F)cc1F (stereo not shown) [Compound 1l, 4-[2-(2,4-Difluorophenyl)-2-hydroxy-3-[1,2,4]triazol-1-yl-propyl]-6-nitro-4H-benzo[1,4]oxazin-3-one]	32 (≈ 74.2 µM)	> 32	> 32	–
CC(=O)c1ccc2c(c1)N(CC(O)(Cn1cncn1)c1ccc(F)cc1F)C(=O)CO2 (stereo not shown) [Compound 1m, 6-Acetyl-4-[2-(2,4-difluorophenyl)-2-hydroxy-3-[1,2,4]-triazol-1-yl-propyl]-4H-benzo[1,4]oxazin-3-one]	> 64	> 64	> 64	–
O=C1COc2ccc(Cl)cc2N1CC(O)(Cn1cncn1)c1ccc(Br)cc1 (stereo not shown) [Compound 1n, 4-[2-(4-Bromophenyl)-2-hydroxy-3-[1,2,4]-triazol-1-yl-propyl]-6-chloro-4H-benzo[1,4]oxazin-3-one]	4 (≈ 8.63 µM)	> 16	> 16	–
CC(=O)c1ccc2c(c1)N(CC(O)(Cn1cncn1)c1ccc(Br)cc1)C(=O)CO2 (stereo not shown) [Compound 1p, 6-Acetyl-4-[2-(4-bromophenyl)-2-hydroxy-3-[1,2,4]triazol-1-yl-propyl]-4H-benzo[1,4]oxazin-3-one]	32 (≈ 67.9 µM)	> 32	> 32	–
O=c1oc2ccccc2n1CC(O)(Cn1cncn1)c1ccc(F)cc1F (stereo not shown) [Compound 1q, 3-[2-(2,4-Difluorophenyl)-2-hydroxy-3-[1,2,4]triazol-1-yl-propyl]-3H-benzoxazolin-2-one]	2 (≈ 5.37 µM)	> 128	> 128	–
OC(Cn1cncn1)(Cn1cncn1)c1ccc(F)cc1F [Fluconazole, reference compound]	1 (≈ 3.27 µM)	128 (≈ 418 µM)	> 128	MIC (C. albicans ATCC24433): 0.25 µg/mL (≈ 0.816 µM); MIC (C. albicans ATCC10231): 1 µg/mL (≈ 3.27 µM); MIC (C. albicans ATCC2091): 4 µg/mL (≈ 13.1 µM); MIC (C. albicans ATCC90028): 0.5 µg/mL (≈ 1.63 µM); MIC (C. glabrata ATCC90030): 4 µg/mL (≈ 13.1 µM); MIC (C. krusei ATCC6258): 64 µg/mL (≈ 209 µM); MIC (C. tropicalis ATCC750): 2 µg/mL (≈ 6.53 µM)
